Data as given in patent US20180362559A1, “BONE ACTIVE NITROGEN-CONTAINING BISPHOSPHONATES WITH A NEAR INFRARED FLUORESCENT LABEL” (University of Southern California, priority 2015, published 2018).

How the values were obtained:
bone slice resorption = bone slice resorption assay; format: cell-based; conditions: in vitro, qualitative ranking
osteoclast (OC) = osteoclast (OC) inhibitory activity in vitro using mouse bone marrow cells (osteoclast culture); format: cell-based; conditions: for activity in osteoclast culture assay: in vitro, qualitative ranking; for OC numbers: mouse bone marrow cells, vehicle 239+/−17
Procedure: To determine if these AF-BP structural modifications improved the osteoclast (OC) inhibitory activity, these modifications were tested in vitro using mouse bone marrow cells.

SMILES | activity in bone slice resorption assay (bone slice resorption) | activity in osteoclast culture assay (osteoclast (OC)) | OC numbers (osteoclast (OC); 0.1 uM) | OC numbers (osteoclast (OC); 1 uM) | OC numbers (osteoclast (OC); 10 uM)
O=C(CCNC(=O)c1ccc(-c2c3ccc(=O)cc-3oc3cc(O)ccc23)c(C(=O)O)c1)NCC(O)C[n+]1cccc(CC(O)(P(=O)(O)O)P(=O)(O)O)c1 (centres unmarked) [Compound 13, 1-(3-(3-(3-carboxy-4-(6-hydroxy-1-oxo-3H-xanthen-9-yl)benzamido)propanamido)-2-hydroxypropyl)-3-(2-hydroxy-2,2-diphosphonoethyl)pyridin-1-ium] | most active | most active |  |  | 
O=P(O)(O)C(O)(Cc1cccnc1)P(=O)(O)O [RIS, (1-hydroxy-2-pyridin-3-ylethane-1,1-diyl)bis(phosphonic acid), reference compound] |  |  | 214+/−37 | 220+/−28 | 143+/−21
O=C(CCOCCOCCOCCOCCNC(=O)c1ccc(-c2c3ccc(=O)cc-3oc3cc(O)ccc23)c(C(=O)O)c1)NCC(O)C[n+]1cccc(CC(O)(P(=O)(O)O)P(=O)(O)O)c1 (centres unmarked) [Compound 21, 1-(1-(3-carboxy-4-(6-hydroxy-3-oxo-3H-xanthen-9-yl)phenyl)-20-hydroxy-1,17-dioxo-5,8,11,14-tetraoxa-2,18-diazahenicosan-21-yl)-3-(2-hydroxy-2,2-diphosphonoethyl)pyridin-1-ium] | most active | most active |  |  | 
O=C(CCNC(=O)c1ccc(C(=O)O)c(-c2c3ccc(=O)cc-3oc3cc(O)ccc23)c1)NCC(O)C[n+]1cccc(CC(O)(P(=O)(O)O)P(=O)(O)O)c1 (centres unmarked) [Compound 14, 1-(3-(3-(4-carboxy-3-(6-hydroxy-3-oxo-3H-xanthen-9-yl)benzamido)propanamido)-2-hydroxypropyl)-3-(2-hydroxy-2,2-diphosphonoethyl)pyridin-1-ium] | most active | most active |  |  | 
O=C(CCOCCOCCOCCOCCNC(=O)c1ccc(C(=O)O)c(-c2c3ccc(=O)cc-3oc3cc(O)ccc23)c1)NCC(O)C[n+]1cccc(CC(O)(P(=O)(O)O)P(=O)(O)O)c1 (centres unmarked) [Compound 22] | most active | most active |  |  | 
